Patent US4238620A, “Dibenz[b,f]oxepin and dibenzo[b,f]thiepin derivatives, process for preparation thereof, method of using the same, and compositions thereof” (priority 1978, dated 1980)
Like-named read-outs stand apart in the source and are kept apart here.

Experiments:
[1] = Overall comparison of anti-inflammatory, analgesic and antipyretic activities (Tests 1 to 3); type: in vivo, rats; guinea-pigs; conditions: for anti-inflammatory, analgesic and antipyretic activities compared with indomethacin: vs indomethacin (compound 3)
Source text: (§1) From these diagrams, the correlation between the pharmacological activity of each compound and its ulcerogenicity and toxicity, i.e. the safety margin of each compound, can be clearly seen. In these Figures, the lines and letters have the following meanings:
(§2) The following conclusions can be drawn from Tables I to III and FIGS. 1 and 2. In the following description, the therapeutic index means LD50 /ED50 (or MED), and the safety index means UD50 /ED50 (or MED). The safety margin of a given compound is broader when it has larger therapeutic and or safety indices.

in vivo [2] = conditions: rat, po
[3] = system: Acetic acid (AcOH)-induced writhing in rats; assay: Acetic acid (AcOH)-induced writhing in rats (ACW method), analgesic activity; type: in vivo; conditions: Rattus norvegicus, po, read-out: Analgesic activity ED50, ACW
Method: (§3) TEST 2. ANALGESIC ACTIVITY
(b) Acetic acid (AcOH)-induced writhing in rats (ACW method)
The test was carried out according to the method described in Arzneim. Forsch., 25, 1505 (1975).

[4] = system: AgNO3-induced joint pain in rats; assay: AgNO3-induced joint pain in rats (AGP method), analgesic activity; type: in vivo; conditions: Rattus norvegicus, po, read-out: Analgesic activity ED50, AGP
Method: as §3
(a) AgNO3 -induced joint pain in rats (AGP method)
The test was carried out according to the method described in J. Pharmacol. Expt. Ther., 98, 19 (1950)

[5] = system: adjuvant-induced arthritis in rats; assay: Therapeutic activity on adjuvant-induced arthritis in rats (AAT method), subacute and chronic inflammation; type: in vivo; conditions: Rattus norvegicus, po, read-out: Minimum Effective Dose, subacute and chronic inflammation, AAT*
Method: (§4) (2) Effect on subacute and chronic inflammations:
(a) Therapeutic activity on adjuvant-induced arthritis in rats (AAT method)
The test was carried out according to the method described in Brit. J. Pharmacol., 21, 127 (1963) and Japan J. Pharmacol., 23, 58 (1973).

in vivo [6] = conditions: rat, po; remark: listed apart in the source
Method: (§5) (b) Repeated administrations in rats
(§6) Test compounds were orally administered once daily for 5 days, and LD50 -value was calculated from the mortality on the 6th day.

[7] = type: in vivo; conditions: for therapeutic index compared with indomethacin: vs indomethacin
Source text: In the following description, the therapeutic index means LD50 /ED50 (or MED), and the safety index means UD50 /ED50 (or MED).

[8] = system: Yeast-induced fever in rats; assay: Yeast-induced fever in rats (YEF method), antipyretic activity; type: in vivo; conditions: Rattus norvegicus, po, read-out: Antipyretic activity ED50, YEF
Method: TEST 3. ANTIPYRETIC ACTIVITY
Yeast-induced fever in rats (YEF method)
The test was carried out according to the method described in Arzneim. Forsch., 13, 338 (1963).

[9] = system: Ultraviolet-induced erythema in guinea-pigs; assay: Ultraviolet-induced erythema in guinea-pigs (UVE method), acute inflammation; type: in vivo; conditions: Cavia porcellus, po, read-out: Anti-inflammatory activity ED50, acute inflammation, UVE
Method: (§7) (1) Effect on acute inflammation:
(b) Ultraviolet-induced erythema in guinea-pigs (UVE method)
The test was carried out according to the method described in Arch. Int. Pharmacodyn. Ther., 116, 261 (1958).

[10] = Gastrointestinal ulcer formation in fed rats (ulcerogenicity); type: in vivo; conditions: rat, in vivo, po, fed rats; read-out: UD50 (50% ulcer forming dose)
Method: (§8) TEST 4. ULCEROGENICITY IN GASTROINTESTINAL TRACT
(§9) Gastrointestinal ulcer formation in fed rats
(§10) The test was carried out according to the method described in Science, 170, 183 (1970).

[11] = system: Felt pellet-induced granuloma formation in rats; assay: Felt pellet-induced granuloma formation in rats (FGF method), subacute and chronic inflammation; type: in vivo; conditions: Rattus norvegicus, po, read-out: Minimum Effective Dose, subacute and chronic inflammation, FGF*
Method: as §4
(b) Felt pellet-induced granuloma formation in rats (FGF method)
The test was carried out according to the method described in J. Amer. Pharm. Assoc., 46, 515 (1957) and Chem. Pharm. Bull., 23, 1446 (1975).

rats = assay: Overall comparison of lethal toxicity (Test 5); type: in vivo; conditions: for toxicity compared with indomethacin (in words): vs indomethacin
Method: (a) Single administration in rats
as §5, §6

[12] = Safety index (UD50/ED50 or MED), separation of activity from ulcerogenicity; type: in vivo; conditions: for separation of anti-inflammatory, analgesic and antipyretic activities from ulcerogenicity: FIGS. 1 and 2, vs indomethacin
Source text: as §1, §2

[13] = system: Carrageenin-induced hind paw oedema in rats; assay: Carrageenin-induced hind paw oedema in rats (CAR method), acute inflammation; type: in vivo; conditions: Rattus norvegicus, po, read-out: Anti-inflammatory activity ED50, acute inflammation, CAR
Method: as §7
(a) Carrageenin-induced hind paw oedema in rats (CAR method)
The test was carried out according to the method described in Proc. Soc. Exp. Biol. Med., 111, 544 (1962).

[14] = system: Gastrointestinal ulcer formation in fed rats; assay: Gastrointestinal ulcer formation in fed rats (ulcerogenicity); type: in vivo; conditions: fraction of that of compound 2
Method: as §8, §9, §10

[15] = rats, single administration, 7th day, read-out: LD50 Single
[16] = rats, once daily for 5 days, mortality on 6th day, read-out: LD50 Repeated

Row | SMILES | LD50 at 168 h (in vivo [2]; [15]) | ED50 [3] | ED50 [4] | minimal effective dose [5] | LD50 at 144 h (in vivo [6]; [16]) | ED50 [8] | ED50 [9] | TD50 [10] | minimal effective dose [11] | toxicity compared with indomethacin (in words) (rats) | ED50 [13] | ED50 ([13]; rats, CAR method) | other results
1 | Cc1ccc2c(c1)CC(=O)c1cc(C(C)C(=O)O)ccc1O2 (racemic) [compound A, dl-2-(8-Methyl-10,11-dihydro-11-oxodibenz[b,f]oxepin-2-yl)propionic acid] | 147 mg/kg | 0.28 mg/kg | 2.6 mg/kg | 0.2 mg/kg/day | > 12 mg/kg | 0.021 mg/kg | 0.3 mg/kg | 2.97 mg/kg | 2 mg/kg/day | far weaker than those of indomethacin | 3.38 mg/kg |  | pharmacological activities compared with compound 1 ([1]; vs compound 1): stronger pharmacological activities in all the methods tested; pharmacological potency and/or safety margin compared with compound 1 ([1]; vs compound 1): superior to compound 1 not only in pharmacological activities but also in safety margin; anti-inflammatory, analgesic and antipyretic activities compared with indomethacin [1]: equivalent or superior to those of indomethacin; average therapeutic index relative to compound 1 ([7]; LD50/ED50 (or MED), vs compound 1): about 3.7 times; therapeutic index compared with indomethacin [7]: far larger therapeutic indices than indomethacin; toxicity relative to compound 1 (rats; vs compound 1): less toxic than compound 1; separation of anti-inflammatory, analgesic and antipyretic activities from ulcerogenicity [12]: more separated from ulcerogenicity in the gastrointestinal tract than in indomethacin; average safety index relative to compound 1 ([12]; UD50/ED50 (or MED), vs compound 1): about 1.6 times
2 | CC(C(=O)OCCOCCO)c1ccc2c(c1)C(=O)Cc1ccccc1O2 (racemic) [compound D, 2-(2-Hydroxyethoxy)ethyl dl-2-(10,11-dihydro-11-oxodibenz[b,f]oxepin-2-yl)propionate] |  |  |  |  |  |  |  |  |  | far weaker than those of indomethacin |  | 2.87 mg/kg | activity on subacute and chronic inflammation compared with indomethacin ([1]; AAT and FGF, vs indomethacin): inferior to that of indomethacin; anti-inflammatory (acute), analgesic and antipyretic activities compared with indomethacin ([1]; acute inflammation, analgesic, antipyretic, vs indomethacin): almost equivalent to those of indomethacin; pharmacological activities compared with compound 1 ([1]; vs compound 1): comparable to those of compound 1; LD50 at 168 h (in vivo [2]): 260 mg/kg; ED50 ([3]; rats, ACW method): 1.06 mg/kg; ED50 ([4]; rats, AGP method): 4.6 mg/kg; minimal effective dose ([5]; rats, AAT method): 1 mg/kg/day; LD50 at 144 h (in vivo [6]): > 24 mg/kg; ED50 ([8]; rats, YEF method): 0.112 mg/kg; ED50 ([9]; guinea-pigs, UVE method): 1.5 mg/kg; minimal effective dose ([11]; rats, FGF method): 6 mg/kg/day
3 | Cc1ccc2c(c1)CC(=O)c1cc(C(C)C(=O)OCCOCCO)ccc1S2 (racemic) [compound G, 2-(2-Hydroxyethoxy)ethyl dl-2-(8-methyl-10,11-dihydro-11-oxodibenzo[b,f]thiepin-2-yl)propionate] |  | 0.33 mg/kg | 0.96 mg/kg | ≤ 0.2 mg/kg/day | > 16 mg/kg | 0.041 mg/kg | 2.52 mg/kg | 2.94 mg/kg |  | far weaker than those of indomethacin | 5.94 mg/kg |  | analgesic activity compared with compounds 2 and C ([1]; AGP, ACW, vs compounds 2 and C): stronger than those of compounds 2 and C; antiinflammatory and antipyretic activities compared with compounds 2 and C ([1]; vs compounds 2 and C): weaker than those of compounds 2 and C; anti-inflammatory, analgesic and antipyretic activities compared with indomethacin [1]: equivalent or superior to those of indomethacin; average therapeutic index relative to compound 2 ([7]; LD50/ED50 (or MED), vs compound 2): more than 8 times; breadth of safety margin compared with compound 2 ([7]; safety margin, vs compound 2): far superior to compound 2; therapeutic index compared with indomethacin [7]: far larger therapeutic indices than indomethacin; ulcerogenicity relative to compound 2 [14]: about 1/5; toxicity relative to compound 2 (rats; fraction of that of compound 2): less than 1/7; separation of anti-inflammatory, analgesic and antipyretic activities from ulcerogenicity [12]: more separated from ulcerogenicity in the gastrointestinal tract than in indomethacin; average safety index relative to compound 2 ([12]; UD50/ED50 (or MED), vs compound 2): about 5 times
4 | CC(C(=O)O)c1ccc2c(c1)C(=O)Cc1ccccc1O2 (stereo not drawn) [compound 1, 2-(10,11-dihydro-11-oxodibenz[b,f]oxepin-2-yl)propionic acid, reference compound] | 106 mg/kg |  | 5.8 mg/kg | 1 mg/kg/day |  | 0.062 mg/kg | 0.93 mg/kg | 4.85 mg/kg | 3 mg/kg/day |  | 3.65 mg/kg |  | 
5 | CC(C(=O)O)c1ccc2c(c1)C(=O)Cc1ccccc1S2 (stereo not drawn) [compound 2, 2-(10,11-dihydro-11-oxodibenzo[b,f]thiepin-2-yl)propionic acid, reference compound] |  | 1.16 mg/kg | 1.66 mg/kg | < 0.1 mg/kg/day | 2.15 mg/kg | 0.022 mg/kg | 0.98 mg/kg | 0.62 mg/kg | 0.25 mg/kg/day |  | 1.2 mg/kg |  | 
6 | COc1ccc2c(c1)c(CC(=O)O)c(C)n2C(=O)c1ccc(Cl)cc1 [compound 3, indomethacin, reference compound] | 18.5 mg/kg | 0.44 mg/kg | 4.1 mg/kg | 0.2 to 0.4 mg/kg/day | ~5 mg/kg | 0.223 mg/kg | 9.12 mg/kg | 3.95 mg/kg | 2 mg/kg/day |  | 3.3 mg/kg |  | 
7 | Cc1ccc2c(c1)CC(=O)c1cc(CC(=O)O)ccc1O2 [compound B, 8-Methyl-10,11-dihydro-11-oxodibenz[b,f]oxepin-2-acetic acid] |  |  |  |  |  |  |  |  |  |  |  | 2.2 mg/kg | activity on acute inflammation and fever compared with indomethacin ([1]; acute inflammation and fever, vs indomethacin): nearly comparable to that of indomethacin; ED50 ([8]; rats, YEF method): 0.357 mg/kg; ED50 ([9]; guinea-pigs, UVE method): 4.48 mg/kg; minimal effective dose ([11]; rats, FGF method): 20 mg/kg/day
8 | Cc1ccc2c(c1)CC(=O)c1cc(CC(=O)OCCOCCO)ccc1O2 [compound F, 2-(2-Hydroxyethoxy)ethyl 8-methyl-10,11-dihydro-11-oxodibenz[b,f]oxepin-2-acetate] |  |  |  |  |  |  |  |  |  |  |  | 7.95 mg/kg | 
